The values below are quoted from earlier work in US20100172982A1, “SUSTAINED RELEASE FORMULATIONS OF DIVALPROEX SODIUM” (SUN PHARMACEUTICAL INDUSTRIES LIMITED, priority 2007, published 2010).

The conditions of the series: children.

On to `CCCC(CCC)C(=O)O` [valproic acid, 2-propylpenatnoic acid], for which the elimination half-life entry was “four and fourteen”.
